Results reported in patent US20160166576A1, “SUBSTITUTED AMIDOPYRAZOLE INHIBITORS OF INTERLEUKIN RECEPTOR-ASSOCIATED KINASES (IRAK-4)” (MERCK SHARP & DOHME CORP., priority 2013, published 2016).
Like-named read-outs stand apart in the source and are kept apart here.

Tests used:
[1] = biological target: T1, IRAK4 (Homo sapiens, UniProt Q9NWZ3); test: IRAK4 IMAP kinase activity assay (fluorescence polarization); assay type: biochemical; conditions: 1 nM GST tagged IRAK4, 100 μM ATP, 1 hour at 25° C.
T1 construct: GST; purchased SignalChem
T1 sequence (Q9NWZ3 1-460): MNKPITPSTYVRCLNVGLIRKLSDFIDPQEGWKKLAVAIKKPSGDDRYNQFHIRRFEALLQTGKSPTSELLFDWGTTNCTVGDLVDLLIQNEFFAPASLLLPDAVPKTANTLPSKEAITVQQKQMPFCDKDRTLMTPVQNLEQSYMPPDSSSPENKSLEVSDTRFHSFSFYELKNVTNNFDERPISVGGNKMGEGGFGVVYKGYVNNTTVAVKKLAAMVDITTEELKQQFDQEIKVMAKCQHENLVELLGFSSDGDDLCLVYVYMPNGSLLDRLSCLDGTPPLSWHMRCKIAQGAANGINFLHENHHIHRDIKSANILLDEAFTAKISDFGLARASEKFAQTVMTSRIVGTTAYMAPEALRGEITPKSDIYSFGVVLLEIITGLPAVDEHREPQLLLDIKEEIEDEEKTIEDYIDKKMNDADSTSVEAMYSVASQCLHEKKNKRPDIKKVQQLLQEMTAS
Protocol: Determination of IRAK4 Kinase Activity
The kinase activity of IRAK4 is determined by its ability to catalyze the phosphorylation of a fluorescent polypeptide substrate. The extent of phosphorylation is measured using IMAP technology (Molecular Devices) where the phosphorylated fluorescent substrate binds to the large M(III)-based nanoparticles which reduces the rotational speed of the substrate and thus increases its fluorescent polarization (FP).
Procedure: A 20 μl reaction mixture contains 10 mM TriHC1, pH 7.2, 1 nM GST tagged IRAK4 (SignalChem), 100 nM fluorescent peptide substrate (RP7030, Molecular Devices), 100 μM ATP, 1 mM DTT, 2 mM MgCl2, and 0.01% Tween 20. The reaction is initiated by the addition of ATP. After incubation for 1 hour at 25° C., 60 μl of Progressive IMAP Reagent (Molecular Devices) is added to stop the reaction. Change in RP7030's FP is determined by a FP reader (EnVision Multilabel Reader, Perkin Elmer).

[2] = Rat pharmacokinetics after PO and SC dosing; assay type: in vivo, female Lewis rats; conditions: for Cmax: rat, fed female Lewis rats, plasma; for Cmax compared to that of Compound A: rats, at either 30 mpk SC dosing or 30 mpk PO dosing or both
Protocol: Pharmacokinetic Properties
Pharmacokinetic parameters were determined following PO and SC dosing at 30 mg/kg in fed female Lewis rats. Compounds were formulated for both PO and SC dosing in 50/50 (v/v) 50% captisol/50 mM citrate buffer (pH 4). Plasma samples obtained from dosed animals were prepared for analysis by means of a single step protein precipitation technique by adding 200 μL of acetonitrile to 50 μL aliquots of individual subject samples. Samples were mixed by vortex for homogeneity and then subjected to centrifugation at 3500 rpm for 10 min. The supernatant (200 μL) was collected and injected into the LC-MS/MS for analysis. Pharmacokinetic parameters were calculated using established non-compartmental methods.

[3] = 30 mg/kg PO, read-out: Rat PK, 30 mpk PO, Cmax
[4] = 30 mg/kg SC, read-out: Rat PK, 30 mpk SC, Cmax

IC50 [1] [nM]	Cmax [2, 3] [µM]	Cmax [2, 4] [µM]	Cmax compared to that of Compound A [2]	Compound
2	1	3.3	–	Cc1ccc(-n2nc(N3CCN(C)CC3)cc2NC(=O)c2cnn3ccccc23)nc1 [Compound A, reference compound]
4	4.3	16.1	superior	Cc1ccc(-n2nc(N3CCN(CC(N)=O)CC3)cc2NC(=O)c2cnn3cccnc23)nc1 [Compound 16, N-{3-[4-(2-amino-2-oxoethyl)piperazin-1-yl]-1-(5-methylpyridin-2-yl)-1H-pyrazol-5-yl}pyrazolo[1,5-a]pyrimidine-3-carboxamide]
1	8.6	1.5	superior	Cc1ccc(-n2nc(N3CCN([C@@H]4CCS(=O)(=O)C4)CC3)cc2NC(=O)c2cnn3cccnc23)nc1 [Compound 8, N-[3-{4-[(3R)-1,1-dioxidotetrahydrothiophen-3-yl]piperazin-1-yl}-1-(5-methylpyridin-2-yl)-1H-pyrazol-5-yl]pyrazolo[1,5-a]pyrimidine-3-carboxamide]
2	7.7	8.1	superior	Cc1ccc(-n2nc(N3CCN([C@H]4CCS(=O)(=O)C4)CC3)cc2NC(=O)c2cnn3cccnc23)nc1 [Compound 9, N-[3-{4-[(3S)-1,1-dioxidotetrahydrothiophen-3-yl]piperazin-1-yl}-1-(5-methylpyridin-2-yl)-1H-pyrazol-5-yl]pyrazolo[1,5-a]pyrimidine-3-carboxamide]
